In patent US5563130A, “Methods for inhibiting angiogenesis, proliferation of endothelial or tumor cells and tumor growth” (American Cyanamid Company, priority 1994, dated 1996):

Experiments:
Type in all cases: cell-based
MIP = assay: Antiproliferative activity in human colon tumor cell line MIP; conditions: PROTOCOL 1 and PROTOCOL 2
Procedure: (§1) PROTOCOL 1, 2, and 3 are described in greater detail hereinbelow. In general, according to PROTOCOLS 1 and 2, the target ABAE and/or Human Tumor cells are exposed to the compound of Formula I for 48 hours. PROTOCOL 3 exposes ABAE cell to the compound for 4 days. A detailed description of the protocol is as follows:
(§2) Antiproliferative Activity in Human Tumor and Adult Bovine Aortic Endothelial (ABAE) Cell Lines
(§3) The antiproliferative activity of the compounds of Formula I of the present invention is evaluated in a panel comprised of human tumor cell lines and an adult bovine aortic endothelial cell line (ABAE). The human tumor cell lines are from:
(§4) 2) Colon tumors: MIP, CaCo2, and SW620.
(§5) All cell lines are maintained in log phase in RPMI 1640 media, supplemented with 5% fetal calf serum, penicillin/streptomycin and 2 mM L-glutamine. Cultures are renewed after 20 passages with cells from a fresh stock of batch-frozen early passage cells. Cell lines are routinely checked for mycoplasma contamination (Genprobe). In a laminar flow hood, cells (1-5×10^4) are plated into 96-well microtiter plates in a volume of 0.1 ml/well with a bulk microtiter dispenser (Denley). […] At this concentration, dimethylsulfoxide has no effect on cell growth. Compounds are added using a Tomtec dispenser which simultaneously dispenses from one 96-well plate, containing the drug dilutions, to the plates containing the cells. After two days of continuous drug exposure, 50% cold trichloroacetic acid (TCA) is added to 10% final concentration to fix the cells, and after 60 minutes at 4° C., the TCA is aspirated and the plates are washed 5 times with deionized water using a microtiter plate washer. The number of cells on the plate are quantitated using a protein dye-binding assay (Monks et al., 1991). A 0.4% solution of the dye, sulforhodamine B, in glacial acetic acid is added to the plates, and the plates are washed 5 times with 1% glacial acetic acid using the automatic plate washed. The bound stain is solubilized with 0.1 ml of 10 mM Tris base. The optical densities are read from an automatic spectrophotometric plate reader (Dynatech) directly to a main frame computer (VAX 8600).
(§6) Positive controls, that include standard chemotherapeutic drugs (i.e., adriamycin, cisplatin, etc.), are included in every experiment.
(§7) Background optical density measurements (complete media-cells, and complete media+drug-cells) are automatically subtracted from the appropriate control and test wells. Mean values and standard errors are determined from duplicate wells. A measure is also made of the optical density at time when the drugs are added. The number of cells after treatment (P), as % of control, is calculated for every concentration of drug, as follows: [formula] wherein: T is optical density measurement for treated cells after 48 hours;
(§8) C is optical density measurement for untreated cells after 48 hours;
(§9) Co is optical density measurement for cells at the time of drug addition.
(§10) IC50 of growth inhibition is calculated from the sets of P values using the RS-1 data package (BBN Software).
(§11) The antiproliferative activity of the compounds of Formula I is evaluated in a panel comprised of human tumor cell lines and an adult bovine aortic endothelial cell line (ABAE) as listed in PROTOCOL 1. This assay is a modification of PROTOCOL 1. The modifications include:
(§12) 1) each concentration for each compound is tested in a single well;
(§13) 2) compounds are tested at 20, 4, 0.8, 0.16 microgram/ml and additionally in some experiments at 100 and 0.32 microgram/ml;
(§14) 3) samples are pipetted into a 96-well plate for each of the cell lines by a Beckman Biomek 1000 SL robot;
(§15) 4) after fixing with TCA each well is washed with 0.35 ml distilled water twice, not five times;
(§16) 5) after staining with sulforhodamine B each well is washed 3 times, not five times; […]

CACO2 = assay: Antiproliferative activity in human colon tumor cell line CACO2; conditions: PROTOCOL 1 and PROTOCOL 2
Procedure: as §1, §2, §3, §4
All cell lines are maintained in log phase in RPMI 1640 media, supplemented with 5% fetal calf serum, penicillin/streptomycin and 2 mM L-glutamine. […] The number of cells on the plate are quantitated using a protein dye-binding assay (Monks et al., 1991). […] The optical densities are read from an automatic spectrophotometric plate reader (Dynatech) directly to a main frame computer (VAX 8600). […]
Background optical density measurements (complete media-cells, and complete media+drug-cells) are automatically subtracted from the appropriate control and test wells. Mean values and standard errors are determined from duplicate wells. […]

Human Tumor Cell lines = assay: Antiproliferative activity in panel of human tumor cell lines
Procedure: as §1, §2, §3, §4, §5, §6, §7, §8, §9, §10, §11, §12, §13, §14, §15, §16

SW620 = assay: Antiproliferative activity in human colon tumor cell line SW620; conditions: PROTOCOL 1 and PROTOCOL 2
Procedure: as §1, §2, §3, §4, §5, §6, §7, §8, §9, §10, §11, §12, §13, §14, §15, §16

HTB 16 = assay: Antiproliferative activity in human tumor cell line HTB 16; conditions: ovarian tumor line; PROTOCOL 1 and PROTOCOL 2
Procedure: as §1, §2, §3, §5, §6, §7, §8, §9, §10, §11, §12, §13, §14, §15, §16

A2780S = assay: Antiproliferative activity in human ovarian tumor cell line A2780S; conditions: PROTOCOL 1 and PROTOCOL 2
Procedure: as §1, §2, §3, §5, §6, §7, §8, §9, §10, §11, §12, §13, §14, §15, §16

A2780/DDP = assay: Antiproliferative activity in human ovarian tumor cell line A2780/DDP; conditions: PROTOCOL 1 and PROTOCOL 2
Procedure: as §1, §2, §3, §5, §6, §7, §8, §9, §10, §11, §12, §13, §14, §15, §16

C=CCN(CC=C)CC(=O)Nc1ccc2c(c1O)C(=O)C1=C(O)[C@]3(O)C(=O)C(C(N)=O)=C(O)[C@@H](N(C)C)C3CC1C2.Cl.Cl (stereo partly drawn) [Example 2]
MIP IC50 (MIP): 4.0 µg/mL
CACO2 IC50 (CACO2): 4.0 µg/mL
inhibition of cell growth at the highest concentrations (Human Tumor Cell lines; FIG. 2, 6 human tumor cell lines, highest concentrations): < 100%
AVERAGE IC50 FOR TUMOR CELL LINES (Human Tumor Cell lines; average over the tested human tumor cell lines): 2.75 µg/mL
Dead floating cells (Human Tumor Cell lines; even at the highest concentration): not observed
SW620 IC50 (SW620): 1.5 µg/mL
HTB 16 IC50 (HTB 16): 1.5 µg/mL
A2780S IC50 (A2780S): 1.5 µg/mL
A2780/DDP IC50 (A2780/DDP): 4.0 µg/mL
